Entries after “also recorded” stand apart in the source; their conditions may differ. Like-named read-outs stand apart in the source and are kept apart here.
Experiments:
[1] = Storage stability of crystalline salt forms (XRPD, HPLC purity); format: physicochemical; settings: 30 days; for Solid Form after storage: XRPD
Procedure: Two samples prepared by example 9, example 11 and example 13 were stored for 30 days under 25° C./60% RH and 40° C./75% RH.

[2] = Dynamic Vapor Sorption (DVS) hygroscopicity test with XRPD before and after; format: physicochemical; settings: for Change after DVS: XRPD before and after DVS; for solid form change after hygroscopicity test (XRPD): XRPD before and after DVS 0-95% RH cycle
Procedure: Dynamic Vapor Sorption (DVS) was measured via a SMS (Surface Measurement Systems) DVS Intrinsic. Typical Parameters for DVS test are listed below.
Gas and flow rate: N2, 200 mL/min
RH range: 0% RH to 95% RH
About 10.0 mg of hemi-succinate Form A was analyzed by DVS. The solid form was tested by XRPD before and after DVS.
About hygroscopicity characterization description and definition of hygroscopicity (Chinese Pharmacopoeia 2010 edition appendix XIXJ Drug hygroscopic test guidelines, test at 25° C.+/−1° C., 80% Relative Humidity)
About 10 mg of mono-succinate Form I of the present invention and non-hydrate form in patent CN103201275A were analyzed by DVS. The solid was tested by XRPD before and after hygroscopicity test.
The solid was tested by XRPD before and after hygroscopicity test.

[3] = data in patent CN103201275A, cited from earlier work
[4] = Conversion of mono-succinate non-hydrate form to Form I by stirring in solvents at different temperatures; format: physicochemical; settings: cell continues 'Form I'
Procedure: About 10 mg of the non-hydrate form in patent CN103201275A as starting form was added in different solvents or mixed solvents (v/v), then stirred at 5-50° C. for about 48 hours. Finally, the starting form converted to Form I. Solvents and temperature used in this example is in the following in table 6.

[5] = Conversion of mono-succinate non-hydrate form to hemi-succinate Form A by stirring in solvents; format: physicochemical; settings: cell continues 'Form A'
Procedure: About 10 mg of the non-hydrate form in patent CN103201275A as starting form was added in different solvents or mixed solvents (v/v), then stirred at 5˜50° C. for about 48 hours.

HPLC Purity after storage ([1]; 25° C./60% RH) [%] | Solid Form after storage ([1]; 25° C./60% RH) | HPLC Purity after storage ([1]; 40° C./75% RH) [%] | Solid Form after storage ([1]; 40° C./75% RH) | Water absorption at 25° C./95% RH ([2]; DVS) [%] | Change after DVS [2] | Structure (SMILES) | further results
99.1 | No Change | 98.9 | No Change | 0.7 | did not change; also recorded: No change | CN(C)C(=O)c1cc2cnc(Nc3ccc(N4CCNCC4)cn3)nc2n1C1CCCC1.O=C(O)CCCCC(=O)O [adipate Form A] | 
 |  |  |  |  |  | CN(C)C(=O)c1cc2cnc(Nc3ccc(N4CCNCC4)cn3)nc2n1C1CCCC1.O=C(O)CCC(=O)O [mono-succinate Form I] | water adsorbed at 25° C./90% RH ([2]; DVS, 25° C./90% RH): 1.7%; water adsorbed at 25° C./95% RH ([2]; DVS, listed as Form I): 4.0%; solid form change after hygroscopicity test (XRPD) ([2]; listed as Form I): did not change
99.3 | No Change | 99.3 | No Change | 3.4 | did not change; also recorded: No change | CN(C)C(=O)c1cc2cnc(Nc3ccc(N4CCNCC4)cn3)nc2n1C1CCCC1.O=C(O)/C=C\C(=O)O [maleate Form A] | 
99.7 | No Change | 99.6 | No Change | 1.2 | did not change; also recorded: No change | CN(C)C(=O)c1cc2cnc(Nc3ccc(N4CCNCC4)cn3)nc2n1C1CCCC1.O=C(O)CO [glycollate Form A] | 
 |  |  |  |  |  | CN(C)C(=O)c1cc2cnc(Nc3ccc(N4CCNCC4)cn3)nc2n1C1CCCC1.CN(C)C(=O)c1cc2cnc(Nc3ccc(N4CCNCC4)cn3)nc2n1C1CCCC1.O=C(O)CCC(=O)O [hemi-succinate Form A] | weight gain at 80% RH ([2]; DVS, 25° C., 80% RH): 3.5%; hygroscopicity class ([2]; DVS, 80% RH): slightly hygroscopic (increase in mass is less than 2 percent and equal to or greater than 0.2 percent)
 |  |  |  | 18.3 |  | CN(C)C(=O)c1cc2cnc(Nc3ccc(N4CCNCC4)cn3)nc2n1C1CCCC1.O=C(O)CCC(=O)O | share of non-hydrate form converted to hydrate form ([3]; 25° C./80% RH): 0.52%; share of non-hydrate form converted to hydrate form ([3]; 25° C./90% RH): 7.35%; water adsorbed at 25° C./90% RH ([3]; 25° C./90% RH): 2.0%; water adsorbed at 25° C./95% RH ([2]; DVS): 18.3%; solid form change after hygroscopicity test (XRPD) [2]: changed; Change after DVS ([2]; listed as non-hydrate form in patent CN103201275A): changed; Final Form ([4]; 5° C., Ethanol:n-heptane = 4:1, about 48 hours): mono-succinate; Final Form ([4]; 50° C., Acetonitrile:water = 20:1, about 48 hours): mono-succinate; Final Form ([4]; 50° C., THF:Methanol = 20:1, about 48 hours): mono-succinate; Final Form ([4]; RT, Ethanol:n-heptane = 4:1, about 48 hours): mono-succinate; Final Form ([5]; Acetone:water = 20:1, stirred at 5˜50° C. about 48 hours): hemi-succinate; Final Form ([5]; Ethanol:water = 20:1, stirred at 5˜50° C. about 48 hours): hemi-succinate; Final Form ([5]; Ethyl acetate, stirred at 5˜50° C. about 48 hours): hemi-succinate; Final Form ([5]; Tetrahydrofuran:water = 20:1, stirred at 5˜50° C. about 48 hours): hemi-succinate
